Assay results as given in patent US20250296971A1, “GASTRIC INHIBITORY PEPTIDE RECEPTOR LIGANDS” (priority 2021, published 2025).
Like-named read-outs stand apart in the source and are kept apart here. *1 amine or outer side, *2 acyl side, *3 side chain or, on linkers, in order; H or OH if unused. Where a SMILES comes first, the peptide text is derived from it. Bridges are numbered along the chain shown (N, C = ends). [ ]: non-standard residue; d: D form. The star is where a group is joined. X3 = O=C(O)CN1CCN(CC(=O)O)CCN(CC(=O)NCCCOCCOCCOCCCN*)CCN(CC(=O)O)CC1; NH(1-deoxy-D-glucityl) = OC[C@@H](O)[C@@H](O)[C@H](O)[C@@H](O)CN*; DO3AM = NC(=O)CN1CCN(CC(N)=O)CCN(CC(=O)*)CCN(CC(N)=O)CC1; Maleimide(3,4-diyl) = O=C1NC(=O)C([*:2])=C1[*:1]; Trp(5-Cl) = N[C@@H](Cc1c[nH]c2ccc(Cl)cc12)C(=O)O; Pyridine(2,6-diCH2) = c1cc(C[*:1])nc(C[*:2])c1; Phe(2,4-Cl2) = N[C@@H](Cc1ccc(Cl)cc1Cl)C(=O)O; Pro(4R-NH2) = N[C@H]1CN[C@H](C(=O)O)C1; mXylylene = c1cc(C[*:1])cc(C[*:2])c1; Glutaryl = O=C(CCCC(=O)[*:2])[*:1]; X7 = c1cc(CSCCN[*:2])cc(C[*:1])c1; Hyp = O=C(O)[C@@H]1C[C@@H](O)CN1; X1 = O=C(CN1CCC(N[*:1])CC1)[*:2]; Suc = O=C(CCC(=O)[*:2])[*:1]; X30 = NCCNCC(CNCCN)C(=O)*; Api = NC1(C(=O)O)CCNCC1; Thp = NC1(C(=O)O)CCOCC1; Aib = CC(C)(N)C(=O)O

Biological target: T1, GIPR (CHO-K1-hGIPR cells) (Homo sapiens, UniProt P48546)
T1 construct: host or cells: CHO-K1
T1 sequence (P48546 22-466): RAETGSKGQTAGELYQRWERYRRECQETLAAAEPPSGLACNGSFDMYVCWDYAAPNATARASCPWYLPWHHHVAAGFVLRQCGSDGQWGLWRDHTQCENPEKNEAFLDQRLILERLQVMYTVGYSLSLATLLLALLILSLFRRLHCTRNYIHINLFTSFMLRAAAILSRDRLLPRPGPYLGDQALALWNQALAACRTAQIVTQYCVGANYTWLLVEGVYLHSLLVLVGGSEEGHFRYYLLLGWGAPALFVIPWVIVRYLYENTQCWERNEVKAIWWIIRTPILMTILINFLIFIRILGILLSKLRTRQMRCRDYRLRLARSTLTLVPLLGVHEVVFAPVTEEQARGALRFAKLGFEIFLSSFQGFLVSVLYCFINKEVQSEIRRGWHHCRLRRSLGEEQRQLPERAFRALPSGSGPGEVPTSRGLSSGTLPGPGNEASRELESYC
Test: FACS binding assay
Conditions: read-out: pIC50 Category (converted)
How it was run: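 Steps: detach CHO-K1-hGIPR cells (Accutase); wash in PBS/1% FCS; adjust to 500.000 cells per mL; wash ice-cold; incubate APC-streptavidin 1 μg/mL, 30 min on ice; wash twice; acquire on flow cytometer; fit MFI-concentration data with a four-parameter logistic model.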

[1] = competition with 20 nM GIP-057, 4° C., 1 hour
[2] = competition with 20 nM GIP-057, 4° C. for 1 hour

SMILES	IC50 [1]	IC50 [2]
CC[C@H](C)[C@@H]1NC(=O)[C@H](CC(C)C)NC(=O)C2(CCN(C(=O)C(CNCCN)CNCCN)CC2)NC(=O)[C@@H](NC(=O)[C@@H](CC(C)C)NC(=O)[C@H](CCC(=O)O)NC(=O)[C@@H]2C[C@@H](N)CN2C(=O)[C@H](Cc2c[nH]c3ccc(Cl)cc23)NC(=O)[C@H](Cc2c[nH]c3ccccc23)NC(=O)[C@H](CC(=O)O)NC(=O)CCCC(=O)NC[C@H](O)[C@@H](O)[C@H](O)[C@H](O)CO)CSCc2cccc(n2)CSC[C@@H](C(=O)NC2CCN(CC(=O)N[C@H](CCC(=O)NC[C@H](O)[C@@H](O)[C@H](O)[C@H](O)CO)C(N)=O)CC2)NC1=O [GIP-030, AGLU-Glutar-Asp-Trp-5Clw-Tap-Glu-leu-[Cys(2Lut)-Apc(N4Ac)-Leu-Ile-Cys]-APAc-glu(AGLU)-NH2] ({NH(1-deoxy-D-glucityl)-Glutaryl}-DW[Trp(5-Cl)][Pro(4R-NH2)]E[dL]C[Api](X30)LIC[X1][dE](NH(1-deoxy-D-glucityl))-NH2; linker 7-11 via Pyridine(2,6-diCH2))	< 10 nM	–
CC[C@H](C)[C@@H]1NC(=O)[C@H](CC(C)C)NC(=O)[C@@H](NC(=O)[C@H](CCC(=O)O)NC(=O)[C@@H](CC(C)C)NC(=O)[C@H](Cc2c[nH]c3ccc(Cl)cc23)NC(=O)[C@@H]2CCCN2C(=O)[C@H](CC(=O)O)NC(=O)[C@H](Cc2c[nH]c3ccccc23)NC(=O)CCC(=O)NCCCOCCOCCOCCCNC(=O)CN2CCN(CC(=O)O)CCN(CC(=O)O)CCN(CC(=O)O)CC2)CSCc2cccc(c2)CSCCNC(=O)C(C)(C)NC1=O [GIP-304, DOTA-Ttds-Trp-Asp-Pro-5Clw-leu-Glu-[Cys(3MeBn)-Leu-Ile-Aib-AET]] ({X3-Suc}-WDP[Trp(5-Cl)][dL]ECLI[Aib]; linker 7-C via X7)	–	> 1000 nM
CC[C@H](C)[C@@H]1NC(=O)[C@H](CC(C)C)NC(=O)C2(CCOCC2)NC(=O)[C@@H](NC(=O)[C@@H](CC(C)C)NC(=O)[C@H](CCC(=O)O)NC(=O)[C@@H]2C[C@@H](O)CN2C(=O)[C@H](Cc2c[nH]c3ccc(Cl)cc23)NC(=O)[C@H](Cc2c[nH]c3ccccc23)NC(=O)[C@H](CC(=O)O)NC(C)=O)CSC2=C(SC[C@@H](C(N)=O)NC1=O)C(=O)NC2=O [GIP-360, Ac-Asp-Trp-5Clw-Hyp-Glu-leu-[Cys(mli)-Thp-Leu-Ile-Cys]-NH2] (Ac-DW[Trp(5-Cl)][Hyp]E[dL]C[Thp]LIC-NH2; linker 7-11 via Maleimide(3,4-diyl))	–	< 10 nM
CC[C@H](C)[C@@H]1NC(=O)[C@H](CC(C)C)NC(=O)C2(CCN(C(=O)CN3CCN(CC(N)=O)CCN(CC(N)=O)CCN(CC(N)=O)CC3)CC2)NC(=O)[C@@H](NC(=O)[C@@H](CC(C)C)NC(=O)[C@H](CCC(=O)O)NC(=O)[C@@H]2C[C@@H](N)CN2C(=O)[C@H](Cc2c[nH]c3ccc(Cl)cc23)NC(=O)[C@H](Cc2c[nH]c3ccccc23)NC(=O)[C@H](CC(=O)O)NC(=O)CCCC(=O)NC[C@H](O)[C@@H](O)[C@H](O)[C@H](O)CO)CSCc2cccc(n2)CSC[C@@H](C(=O)NC2CCN(CC(=O)N[C@H](CCC(=O)NC[C@H](O)[C@@H](O)[C@H](O)[C@H](O)CO)C(N)=O)CC2)NC1=O [GIP-370, AGLU-Glutar-Asp-Trp-5Clw-Tap-Glu-leu-[Cys(2Lut)-Apc(DOTAM)-Leu-Ile-Cys]-APAc-glu(AGLU)-NH2] ({NH(1-deoxy-D-glucityl)-Glutaryl}-DW[Trp(5-Cl)][Pro(4R-NH2)]E[dL]C[Api](DO3AM)LIC[X1][dE](NH(1-deoxy-D-glucityl))-NH2; linker 7-11 via Pyridine(2,6-diCH2))	–	< 10 nM
CC[C@H](C)[C@@H]1NC(=O)[C@H](CC(C)C)NC(=O)C2(CCOCC2)NC(=O)[C@@H](NC(=O)[C@@H](CC(C)C)NC(=O)[C@H](CCC(=O)O)NC(=O)[C@@H]2C[C@@H](O)CN2C(=O)[C@H](Cc2c[nH]c3ccc(Cl)cc23)NC(=O)[C@H](Cc2c[nH]c3ccccc23)NC(=O)[C@H](CC(=O)O)NC(=O)CCCC(=O)NC[C@H](O)[C@@H](O)[C@H](O)[C@H](O)CO)CSCc2cccc(n2)CSC[C@@H](C(=O)NC2CCN(CC(=O)N[C@H](CCC(=O)NC[C@H](O)[C@@H](O)[C@H](O)[C@H](O)CO)C(N)=O)CC2)NC1=O [GIP-174, AGLU-Glutar-Asp-Trp-5Clw-Hyp-Glu-leu-[Cys(2Lut)-Thp-Leu-Ile-Cys]-APAc-glu(AGLU)-NH2] ({NH(1-deoxy-D-glucityl)-Glutaryl}-DW[Trp(5-Cl)][Hyp]E[dL]C[Thp]LIC[X1][dE](NH(1-deoxy-D-glucityl))-NH2; linker 7-11 via Pyridine(2,6-diCH2))	< 10 nM	–

Now from value to compound:

IC50 [1]	IC50 [2]	SMILES
–	100 to 794 nM	CC[C@H](C)[C@@H]1NC(=O)[C@H](CC(C)C)NC(=O)[C@@H](C)NC(=O)[C@@H](NC(=O)[C@H](CC(C)C)NC(=O)[C@@H](CCC(=O)O)NC(=O)[C@@H]2CCCN2C(=O)[C@H](Cc2c[nH]c3ccccc23)NC(=O)[C@H](Cc2c[nH]c3ccccc23)NC(=O)[C@H](CC(=O)O)NC(=O)CCC(=O)NCCCOCCOCCOCCCNC(=O)CN2CCN(CC(=O)O)CCN(CC(=O)O)CCN(CC(=O)O)CC2)CSCc2cccc(c2)CSC[C@@H](C(N)=O)NC1=O [GIP-269, DOTA-Ttds-Asp-Trp-Trp-Pro-glu-Leu-[Cys(3MeBn)-ala-Leu-Ile-Cys]-NH2] ({X3-Suc}-DWWP[dE]LC[dA]LIC-NH2; linker 7-11 via mXylylene)
–	> 1000 nM	CC[C@H](C)[C@@H]1NC(=O)[C@H](CC(C)C)NC(=O)C2(CCOCC2)NC(=O)[C@@H](NC(=O)[C@@H](CC(C)C)NC(=O)[C@H](CCC(=O)O)NC(=O)[C@@H]2C[C@@H](O)CN2C(=O)[C@H](Cc2ccc(Cl)cc2Cl)NC(=O)[C@H](Cc2c[nH]c3ccccc23)NC(=O)[C@H](CC(=O)O)NC(C)=O)CSCc2cccc(n2)CSC[C@@H](C(N)=O)NC1=O [GIP-351, Ac-Asp-Trp-Egm-Hyp-Glu-leu-[Cys(2Lut)-Thp-Leu-Ile-Cys]-NH2] (Ac-DW[Phe(2,4-Cl2)][Hyp]E[dL]C[Thp]LIC-NH2; linker 7-11 via Pyridine(2,6-diCH2))
–	10 to 79.4 nM	CC[C@H](C)[C@@H]1NC(=O)[C@H](CC(C)C)NC(=O)[C@H](C)NC(=O)[C@@H](NC(=O)[C@H](CC(C)C)NC(=O)[C@H](CCC(=O)O)NC(=O)[C@@H]2CCCN2C(=O)[C@H](Cc2c[nH]c3ccccc23)NC(=O)[C@H](Cc2c[nH]c3ccccc23)NC(=O)CCC(=O)O)CSCc2cccc(c2)CSCCNC1=O [GIP-256, HO-Succinyl-Trp-Trp-Pro-Glu-Leu-[Cys(3MeBn)-Ala-Leu-Ile-AET]] (Suc-WWPELCALI; linker 6-C via X7)
–	10 to 79.4 nM	CC[C@H](C)[C@@H]1NC(=O)[C@H](CC(C)C)NC(=O)C2(CCOCC2)NC(=O)[C@@H](NC(=O)[C@@H](CC(C)C)NC(=O)[C@@H]2CCCN2C(=O)[C@@H]2C[C@@H](O)CN2C(=O)[C@H](Cc2c[nH]c3ccc(Cl)cc23)NC(=O)[C@H](Cc2c[nH]c3ccccc23)NC(=O)[C@H](CC(=O)O)NC(C)=O)CSCc2cccc(n2)CSC[C@@H](C(N)=O)NC1=O [GIP-398, Ac-Asp-Trp-5Clw-Hyp-Pro-leu-[Cys(2Lut)-Thp-Leu-Ile-Cys]-NH2] (Ac-DW[Trp(5-Cl)][Hyp]P[dL]C[Thp]LIC-NH2; linker 7-11 via Pyridine(2,6-diCH2))
